According to patent publication US11730731B2 (INVENTAGE LAB INC., priority 2021, dated 2023):

How the values were obtained:
Assay type in all cases: in vivo, mouse
[1] = system: murine collagen-induced arthritis (CIA); experiment: Histological estimation of hind paw tissue, hematoxylin/eosin staining, CIA mice; set-up: scale not given here; conditions: day 41
Experimental: (§1) Mice were sacrificed on the 41th day, which is the end of the experiment, and the tissues of the hind paws were stained with hematoxylin/eosin. Hematoxylin/eosin staining was used to evaluate the activity of inflammation in the arthritic tissue, and toluidine blue staining was performed to confirm the histological therapeutic effect on cartilage destruction.
The hind paw tissue of the mouse was stained with hematoxylin/eosin, and 4 sites (100 magnification) for each tissue were photographed. Two or more investigators evaluated the items of synovial hyperplasia, pannus formation, cartilage destruction, and bone erosion for hematoxylin/eosin staining. The scoring criteria for each item were described in Table 7, and the average score of 4 sites was calculated as the score of each tissue.
Hematoxylin/eosin staining was performed and evaluated in the same manner as in Example 2.3. (1) above, and the score for items of synovial hyperplasia, pannus formation, cartilage destruction, and bone erosion was calculated by scoring each tissue as the average of the score of 4 sites based on Table 7 above.

[2] = system: murine collagen-induced arthritis (CIA); experiment: Histological estimation of hind paw tissue, toluidine blue staining, CIA mice; set-up: scale not given here; conditions: day 41
Experimental: as §1
The hind paw tissue of the mouse was stained with toluidine blue, and 4 sites (100 magnification) for each tissue were photographed. Two or more investigators evaluated the items of matrix staining, surface regularity, and cartilage thickness. The scoring criteria for each item was described in Table 9, and the average score of 4 sites was calculated as the score of each
(§2) In the same manner as in Example 2.3. (2), the hind paw tissue of the mouse was stained with toluidine blue, and items such as photographing and matrix staining, surface regularity, and cartilage thickness were evaluated. The scoring criteria for each item were described in Table 9, and the average score of 4 sites was calculated as the score of each tissue.
as §2, with “2.3. (2) above,” for “2.3. (2),”, “item is” for “item were”

[3] = system: murine collagen-induced arthritis (CIA); experiment: Clinical evaluation of arthritis activity (clinical arthritis index, incidence) in collagen-induced arthritis mice; set-up: CAI-AUC Mean / Incidence-AUC Mean: unit not given here; conditions: for CAI Mean: naltrexone (Revia Tablet) 10 mg/kg oral once/day
Experimental: As a model of murine collagen-induced arthritis (CIA), 6 to 10 week-old male mice of DBA/1 J strain was prepared. […] The number of experimental animals per cage was kept under 6, and a cage was exchanged twice a week and feed was supplied.
A 2 mg/mL collagen solution was prepared by dissolving bovine type 2 collagen in 10 mM acetic acid. After emulsifying by mixing 2 mg/mL of Complete Freund's adjuvant and collagen solution in a 1:1 (v/v) ratio, it was intradermally injected into the tail of mouse at a dose of 100 μl/animal (first immunization, day 0). After emulsifying by mixing incomplete Freund's adjuvant […] and collagen solution in a 1:1 (v/v) ratio on the 21th day, it was intradermally injected into the tail of mouse at a dose of 100 μl/animal (the secondary immunization, on the 21th day). After that, mice were randomly divided into groups and assigned to experimental groups.
The refrigerated test substance was standed at room temperature 1 hour before administration and dissolved in 0.15 mL of water for injection. 0.15 mL of the test substance was filled using a syringe with a 21 G needle. The needle was changed to 23 G within 2 minutes after filling and the mice were injected.
(§3) After administration of the test substance to the collagen-induced arthritis mouse model, the occurrence and level of inflammation were regularly observed from the date of group separation to the end of the experiment (the 41th day). Inflammation level was given a score of 0 to 4 for each paw according to the criteria in Table 4 below, and the sum was used as a clinical arthritis index (CAI).
When the clinical index of each paw was 2 score or higher, it was determined that arthritis occurred, and the incidence was defined as 100% when arthritis occurred in […].
as §3, with “end date” for “end”, “above,” for “below,”
as §3, with “above,” for “below,”

[4] = Example 2, CIA mouse, MTX 1 mg/kg, naltrexone 10 mg/kg oral, naltrexone DDS 3 mg/mouse
[5] = Example 3, CIA mouse, MTX 1 mg/kg ip twice/week, Xeljanz 10 mg/kg oral once/day, MTX 1 mg/kg + Q-DDS 3 mg/mouse
[6] = Example 2, CIA mouse, methotrexate 1 mg/kg ip twice/week, naltrexone 10 mg/kg oral once/day, naltrexone DDS 3 mg/mouse sc once on day 23
[7] = Example 2, CIA mouse, methotrexate 1 mg/kg ip twice/week, naltrexone DDS 3 mg/mouse sc once on day 23

| SMILES | Bone erosion score Mean (hematoxylin/eosin) [1, 4] | Cartilage destruction score Mean (hematoxylin/eosin) [1, 4] | Pannus formation score Mean (hematoxylin/eosin) [1, 4] | Synovial hyperplasia score Mean (hematoxylin/eosin) [1, 4] | Bone erosion score Mean (hematoxylin/eosin) [1, 5] | Cartilage destruction score Mean (hematoxylin/eosin) [1, 5] | Pannus formation score Mean (hematoxylin/eosin) [1, 5] | Synovial hyperplasia score Mean (hematoxylin/eosin) [1, 5] | Cartilage thickness score Mean (toluidine blue) [2, 4] | Matrix staining score Mean (toluidine blue) [2, 4] | Surface regularity score Mean (toluidine blue) [2, 4] | Cartilage thickness score Mean (toluidine blue) [2, 5] | Matrix staining score Mean (toluidine blue) [2, 5] | Surface regularity score Mean (toluidine blue) [2, 5] | Incidence (%) Mean [3, 6] [%] | CAI Mean [3, 7] | CAI (D41) Mean [3, 5] | CAI-AUC Mean [3, 5] | Incidence (%) Mean [3, 5] [%] | Incidence-AUC Mean [3, 5] | other results |
| --- | --- | --- | --- | --- | --- | --- | --- | --- | --- | --- | --- | --- | --- | --- | --- | --- | --- | --- | --- | --- | --- |
| CN(Cc1cnc2nc(N)nc(N)c2n1)c1ccc(C(=O)N[C@@H](CCC(=O)O)C(=O)O)cc1 [Methotrexate, methotrexate] | 0.08 | 0.50 | 0.14 | 0.91 | 0.92 | 1.02 | 0.92 | 1.38 | 0.11 | 0.61 | 0.34 | 0.38 | 1.15 | 1.02 | 20.83 | 5.92 | 6.35 | 71.20 | 30.0 | 170.0 | CAI-AUC Mean [3, 6]: 46.6; Incidence-AUC Mean [3, 6]: 185.4 |
| O=C1CC[C@@]2(O)[C@H]3Cc4ccc(O)c5c4[C@@]2(CCN3CC2CC2)[C@H]1O5 [Naltrexone, 17-(cyclopropylmethyl)-4,5α-epoxy-3,14-dihydroxymorphinan-6-one] | 0.58 | 0.98 | 0.58 | 1.27 | – | – | – | – | 0.39 | 0.92 | 0.80 | – | – | – | 41.67 | 8.25 | – | – | – | – | – |
| C[C@@H]1CCN(C(=O)CC#N)C[C@@H]1N(C)c1ncnc2[nH]ccc12 [Xeljanz ®, Tofacitinib] | – | – | – | – | 1.13 | 1.38 | 1.13 | 1.56 | – | – | – | 0.56 | 1.42 | 1.13 | – | – | 6.25 | 74.50 | 27.5 | 263.8 | – |
